Consider 15 compounds from patent US11945798B2, “Substituted aminopyridine compounds as EGFR inhibitors” (YUHAN CORPORATION, priority 2021, dated 2024).

One experiment concerns the target EGFR L858R/C797S (Homo sapiens, UniProt P00533, C797S/L858R). The experiment is described as follows: Biochemical EGFR kinase assay (Lance Ultra TR-FRET), L858R/C797S. The procedure, abridged:
(§1)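 In this biochemical assay, phosphorylation after a one-hour room-temperature reaction was detected with europium-labelled anti-phosphopeptide antibody at 2 nM final concentration.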
(In general: In TR-FRET formats the signal depends on donor and acceptor labels being close together.)

The target of another experiment is EGFR wildtype (WT) (Homo sapiens, UniProt P00533). The experiment is described as follows: Biochemical EGFR kinase assay (Lance Ultra TR-FRET), wildtype. In a few lines:
as §1

A further experiment concerns the target EGFR L858R/T790M/C797S (Homo sapiens, UniProt P00533, C797S/L858R/T790M). In words: Biochemical EGFR kinase assay (Lance Ultra TR-FRET), L858R/T790M/C797S. The procedure, abridged: as §1
For a further experiment, the target named is EGFR del19/T790M/C797S (Homo sapiens, UniProt P00533, C797S/DEL746-750/T790M). In words: Biochemical EGFR kinase assay (Lance Ultra TR-FRET), del19/T790M/C797S. The procedure, abridged:
as §1

The next experiment addresses EGFR del19/C797S (Homo sapiens, UniProt P00533, C797S/DEL746-750). In words: Biochemical EGFR kinase assay (Lance Ultra TR-FRET), del19/C797S. In a few lines:
as §1

Where [1] appears, read: Km ATP, read-out: IC50 L858R/C797S (nM) Km ATP.
[2] abbreviates: Km ATP, read-out: IC50 WT (nM) Km ATP.
[3] abbreviates: Km ATP, read-out: IC50 L858R/T790M/C797S (nM) Km ATP.
[4] abbreviates: Km ATP, read-out: IC50 del19/T790M/C797S (nM) Km ATP.
Where [5] appears, read: Km ATP, read-out: IC50 del19/C797S (nM) Km ATP.
[6] abbreviates: IC50 L858R/C797S (nM) 100 μM ATP, 100 μM ATP.
The mark [7] stands for this setting: IC50 WT (nM) 100 μM ATP, 100 μM ATP.
[8] abbreviates: IC50 L858R/T790M/C797S (nM) 100 μM ATP, 100 μM ATP.
Where [9] appears, read: IC50 del19/T790M/C797S (nM) 100 μM ATP, 100 μM ATP.
The mark [10] stands for this setting: IC50 del19/C797S (nM) 100 μM ATP, 100 μM ATP.

Read-outs that look alike come from different tables or passages of the source.

EGFR wildtype (WT), sequence (P00533 25-1210): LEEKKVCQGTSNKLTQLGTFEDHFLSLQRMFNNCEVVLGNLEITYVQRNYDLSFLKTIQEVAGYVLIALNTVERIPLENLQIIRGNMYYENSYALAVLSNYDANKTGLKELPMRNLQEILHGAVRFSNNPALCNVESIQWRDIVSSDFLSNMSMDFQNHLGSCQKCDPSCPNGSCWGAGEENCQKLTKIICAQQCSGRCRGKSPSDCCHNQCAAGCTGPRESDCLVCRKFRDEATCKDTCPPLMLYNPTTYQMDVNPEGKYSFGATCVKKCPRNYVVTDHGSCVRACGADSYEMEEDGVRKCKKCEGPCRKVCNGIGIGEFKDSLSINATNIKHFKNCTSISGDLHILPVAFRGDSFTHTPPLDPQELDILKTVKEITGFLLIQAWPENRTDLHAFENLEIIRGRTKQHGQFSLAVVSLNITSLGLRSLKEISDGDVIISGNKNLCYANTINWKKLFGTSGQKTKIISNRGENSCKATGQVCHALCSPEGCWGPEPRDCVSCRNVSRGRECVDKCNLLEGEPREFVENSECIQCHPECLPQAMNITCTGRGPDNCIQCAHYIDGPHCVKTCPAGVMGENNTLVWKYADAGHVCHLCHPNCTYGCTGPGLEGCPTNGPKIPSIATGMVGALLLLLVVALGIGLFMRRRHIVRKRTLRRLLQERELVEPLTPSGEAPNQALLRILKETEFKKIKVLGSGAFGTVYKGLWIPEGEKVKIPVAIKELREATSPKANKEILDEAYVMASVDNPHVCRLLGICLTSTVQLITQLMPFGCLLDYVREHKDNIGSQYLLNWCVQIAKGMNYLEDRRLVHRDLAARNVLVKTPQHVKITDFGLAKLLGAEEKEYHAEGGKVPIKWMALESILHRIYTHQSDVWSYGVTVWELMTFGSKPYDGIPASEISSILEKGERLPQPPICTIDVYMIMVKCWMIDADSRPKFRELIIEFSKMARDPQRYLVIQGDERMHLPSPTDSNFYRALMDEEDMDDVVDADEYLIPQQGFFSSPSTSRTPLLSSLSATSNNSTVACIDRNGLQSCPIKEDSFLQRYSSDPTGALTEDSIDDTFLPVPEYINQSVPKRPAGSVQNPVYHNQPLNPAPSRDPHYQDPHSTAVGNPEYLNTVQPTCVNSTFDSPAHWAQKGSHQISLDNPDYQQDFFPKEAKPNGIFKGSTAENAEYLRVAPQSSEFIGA
EGFR L858R/T790M/C797S, sequence (P00533 25-1210 T790M/C797S/L858R): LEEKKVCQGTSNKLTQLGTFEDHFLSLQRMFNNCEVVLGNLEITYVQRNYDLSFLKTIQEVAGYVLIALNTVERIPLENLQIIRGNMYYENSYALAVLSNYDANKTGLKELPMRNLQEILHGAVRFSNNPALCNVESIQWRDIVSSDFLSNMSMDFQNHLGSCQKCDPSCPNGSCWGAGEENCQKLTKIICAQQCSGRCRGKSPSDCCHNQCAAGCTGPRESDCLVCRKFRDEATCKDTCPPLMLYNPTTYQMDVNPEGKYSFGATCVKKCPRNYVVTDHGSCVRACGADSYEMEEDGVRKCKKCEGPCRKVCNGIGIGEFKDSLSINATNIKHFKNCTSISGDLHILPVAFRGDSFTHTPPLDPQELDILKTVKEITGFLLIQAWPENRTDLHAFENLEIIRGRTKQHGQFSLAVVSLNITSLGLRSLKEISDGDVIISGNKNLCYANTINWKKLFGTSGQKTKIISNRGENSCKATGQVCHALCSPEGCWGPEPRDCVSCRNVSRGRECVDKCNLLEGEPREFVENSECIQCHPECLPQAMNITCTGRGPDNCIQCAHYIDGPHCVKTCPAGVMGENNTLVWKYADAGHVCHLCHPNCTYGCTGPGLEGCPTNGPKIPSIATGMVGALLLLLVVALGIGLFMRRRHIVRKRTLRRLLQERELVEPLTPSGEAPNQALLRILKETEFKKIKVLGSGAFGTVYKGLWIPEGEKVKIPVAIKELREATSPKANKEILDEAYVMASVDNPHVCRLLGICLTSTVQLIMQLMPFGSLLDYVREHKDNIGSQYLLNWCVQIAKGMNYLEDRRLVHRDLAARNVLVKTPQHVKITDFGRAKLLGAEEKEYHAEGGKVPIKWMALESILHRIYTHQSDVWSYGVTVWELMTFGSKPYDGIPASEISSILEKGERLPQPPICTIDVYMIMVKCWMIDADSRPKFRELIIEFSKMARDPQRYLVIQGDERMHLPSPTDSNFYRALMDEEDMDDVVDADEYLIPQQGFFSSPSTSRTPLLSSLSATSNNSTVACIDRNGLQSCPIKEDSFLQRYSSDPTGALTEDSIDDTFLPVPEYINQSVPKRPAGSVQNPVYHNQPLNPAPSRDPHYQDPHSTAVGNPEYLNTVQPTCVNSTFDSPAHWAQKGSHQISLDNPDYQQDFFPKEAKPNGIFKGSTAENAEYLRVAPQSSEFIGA
EGFR L858R/C797S, sequence (P00533 25-1210 C797S/L858R): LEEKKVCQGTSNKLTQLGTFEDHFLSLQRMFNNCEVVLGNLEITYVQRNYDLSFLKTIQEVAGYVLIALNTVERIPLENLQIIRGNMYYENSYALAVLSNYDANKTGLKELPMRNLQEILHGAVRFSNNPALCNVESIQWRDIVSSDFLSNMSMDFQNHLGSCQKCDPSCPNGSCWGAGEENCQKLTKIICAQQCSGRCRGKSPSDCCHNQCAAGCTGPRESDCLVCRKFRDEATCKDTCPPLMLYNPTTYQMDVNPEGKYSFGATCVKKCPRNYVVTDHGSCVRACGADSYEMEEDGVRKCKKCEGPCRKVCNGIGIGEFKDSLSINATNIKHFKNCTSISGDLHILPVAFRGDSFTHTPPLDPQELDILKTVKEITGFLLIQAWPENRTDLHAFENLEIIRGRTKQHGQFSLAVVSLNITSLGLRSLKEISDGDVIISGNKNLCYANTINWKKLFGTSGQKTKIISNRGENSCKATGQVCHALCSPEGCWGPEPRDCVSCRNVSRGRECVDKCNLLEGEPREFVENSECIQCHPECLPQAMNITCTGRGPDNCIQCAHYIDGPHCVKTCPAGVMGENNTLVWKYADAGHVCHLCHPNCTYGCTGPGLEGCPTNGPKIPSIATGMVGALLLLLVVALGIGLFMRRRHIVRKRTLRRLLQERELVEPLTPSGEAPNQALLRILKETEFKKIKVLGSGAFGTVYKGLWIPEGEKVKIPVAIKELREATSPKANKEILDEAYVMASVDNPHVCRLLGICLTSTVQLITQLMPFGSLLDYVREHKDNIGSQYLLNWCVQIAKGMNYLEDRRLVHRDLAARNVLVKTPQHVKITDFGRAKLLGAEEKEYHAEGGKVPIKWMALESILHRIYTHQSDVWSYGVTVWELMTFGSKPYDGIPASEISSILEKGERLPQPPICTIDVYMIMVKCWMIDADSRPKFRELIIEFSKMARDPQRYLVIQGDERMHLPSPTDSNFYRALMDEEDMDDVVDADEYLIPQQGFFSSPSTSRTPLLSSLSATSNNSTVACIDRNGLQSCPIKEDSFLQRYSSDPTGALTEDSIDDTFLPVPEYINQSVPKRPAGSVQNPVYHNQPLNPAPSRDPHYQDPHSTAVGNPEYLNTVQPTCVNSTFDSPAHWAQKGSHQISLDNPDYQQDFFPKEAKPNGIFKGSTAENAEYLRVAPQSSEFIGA
EGFR del19/C797S, sequence (P00533 with tags, fused parts or gaps DEL746-750/C797S): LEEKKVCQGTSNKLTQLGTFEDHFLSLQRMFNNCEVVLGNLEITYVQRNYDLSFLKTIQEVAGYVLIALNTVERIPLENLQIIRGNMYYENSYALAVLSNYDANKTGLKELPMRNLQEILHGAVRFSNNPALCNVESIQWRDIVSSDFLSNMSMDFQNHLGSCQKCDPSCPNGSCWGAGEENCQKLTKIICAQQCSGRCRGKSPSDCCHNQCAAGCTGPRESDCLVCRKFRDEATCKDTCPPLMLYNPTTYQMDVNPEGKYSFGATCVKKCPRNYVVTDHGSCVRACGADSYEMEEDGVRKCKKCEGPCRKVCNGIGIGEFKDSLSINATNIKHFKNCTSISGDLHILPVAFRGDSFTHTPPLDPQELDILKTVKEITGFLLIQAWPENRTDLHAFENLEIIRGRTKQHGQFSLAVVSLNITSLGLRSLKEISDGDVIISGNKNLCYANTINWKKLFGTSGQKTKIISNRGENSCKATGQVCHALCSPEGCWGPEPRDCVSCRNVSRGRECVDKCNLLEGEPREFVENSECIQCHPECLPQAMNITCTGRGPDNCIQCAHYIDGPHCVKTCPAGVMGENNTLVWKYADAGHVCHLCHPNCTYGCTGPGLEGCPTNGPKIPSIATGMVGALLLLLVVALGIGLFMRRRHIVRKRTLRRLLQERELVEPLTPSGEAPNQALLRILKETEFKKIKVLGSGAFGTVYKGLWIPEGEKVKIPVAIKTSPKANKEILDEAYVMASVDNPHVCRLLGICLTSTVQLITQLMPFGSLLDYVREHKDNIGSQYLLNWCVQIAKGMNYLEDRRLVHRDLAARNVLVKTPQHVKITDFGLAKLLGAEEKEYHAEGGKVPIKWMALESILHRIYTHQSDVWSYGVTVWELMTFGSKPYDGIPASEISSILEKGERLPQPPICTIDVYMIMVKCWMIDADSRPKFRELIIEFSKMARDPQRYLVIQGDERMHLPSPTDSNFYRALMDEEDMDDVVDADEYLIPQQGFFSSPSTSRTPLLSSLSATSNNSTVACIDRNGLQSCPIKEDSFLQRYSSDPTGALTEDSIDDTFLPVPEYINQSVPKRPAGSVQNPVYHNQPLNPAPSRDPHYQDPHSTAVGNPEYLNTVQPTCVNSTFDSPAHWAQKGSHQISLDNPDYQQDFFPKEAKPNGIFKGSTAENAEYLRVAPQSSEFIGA

Turning to `CC(=O)NC[C@H]1CC[C@H](CNc2cc(Nc3ccnc(-c4cnn(S(=O)(=O)C5CC5)c4)n3)ncc2C(=O)C2CC2)CC1` [Example 68, N-(((1r,4r)-4-(((5-(Cyclopropanecarbonyl)-2-((2-(1-(cyclopropylsulfonyl)-1H-pyrazol-4-yl)pyrimidin-4-yl)amino)pyridin-4-yl)amino)methyl)cyclohexyl)methyl)acetamide], the IC50 was 11.8 nM on EGFR L858R/C797S (setting [1]); 14.9 nM at EGFR wildtype (WT) (setting [2]); 0.5 nM at EGFR L858R/T790M/C797S (setting [3]); 1 nM at EGFR del19/T790M/C797S (setting [4]); 1 nM on EGFR del19/C797S (setting [5]).
`CC(C)(CO)CNc1cc(Nc2ccnc(-c3cnn(S(=O)(=O)C4CC4)c3)n2)ncc1C(=O)C1CC1` [Example 28, Cyclopropyl(6-((2-(1-(cyclopropylsulfonyl)-1H-pyrazol-4-yl)pyrimidin-4-yl)amino)-4-((3-hydroxy-2,2-dimethylpropyl)amino)pyridin-3-yl)methanone]: the IC50 on EGFR L858R/C797S (setting [6]) was 234 nM; against EGFR wildtype (WT) (setting [7]), more than 10000 nM; against EGFR L858R/T790M/C797S (setting [8]) it was 32.1 nM; at EGFR del19/T790M/C797S (setting [9]), 2.6 nM; on EGFR del19/C797S (setting [10]), 176 nM.
Regarding `CN(C)Cc1ccc(CNc2cc(Nc3ccnc(-c4cnn(C(F)F)c4)n3)ncc2C(=O)C2CC2)cc1` [Example 16, Cyclopropyl(6-((2-(1-(difluoromethyl)-1H-pyrazol-4-yl)pyrimidin-4-yl)amino)-4-((4-((dimethylamino)methyl)benzyl)amino)pyridin-3-yl)methanone], the IC50 on EGFR L858R/C797S (setting [1]) was 30.8 nM; at EGFR wildtype (WT) (setting [2]), 176 nM; at EGFR L858R/T790M/C797S (setting [3]) it was 0.4 nM; at EGFR del19/T790M/C797S (setting [4]), 2.3 nM; on EGFR del19/C797S (setting [5]) it was 13.2 nM.
Regarding `O=C(c1cnc(Nc2ccnc(-c3cnn(S(=O)(=O)C4CC4)c3)n2)cc1NC1CCC(F)(CO)CC1)C1CC1` (stereo not shown) [Example 87, Cyclopropyl(6-((2-(1-(cyclopropylsulfonyl)-1H-pyrazol-4-yl)pyrimidin-4-yl)amino)-4-((4-fluoro-4-(hydroxymethyl)cyclohexyl)amino)pyridin-3-yl)methanone], the IC50 at EGFR L858R/C797S (setting [6]) was 442 nM; against EGFR wildtype (WT) (setting [7]) it was more than 10000 nM; at EGFR L858R/T790M/C797S (setting [8]), 4.3 nM; on EGFR del19/T790M/C797S (setting [9]), 2.2 nM; against EGFR del19/C797S (setting [10]), 25.3 nM.
Regarding `O=C(c1cnc(Nc2ccnc(-c3cnn(S(=O)(=O)C4CC4)c3)n2)cc1NC1CCOCC1)C1CC1` [Example 35, Cyclopropyl(6-((2-(1-(cyclopropylsulfonyl)-1H-pyrazol-4-yl)pyrimidin-4-yl)amino)-4-((tetrahydro-2H-pyran-4-yl)amino)pyridin-3-yl)methanone], the IC50 at EGFR L858R/C797S (setting [6]) is 543 nM; on EGFR wildtype (WT) (setting [7]) it was more than 10000 nM; against EGFR L858R/T790M/C797S (setting [8]), 23.1 nM; at EGFR del19/T790M/C797S (setting [9]) it was 5.2 nM; at EGFR del19/C797S (setting [10]) it was 602 nM.
As for `NC[C@H]1CC[C@H](CNc2cc(Nc3ccnc(-c4cnn(S(=O)(=O)C5CC5)c4)n3)ncc2C(=O)C2CC2)CC1` [Example 67, (4-((((1r,4r)-4-(Aminomethyl)cyclohexyl)methyl)amino)-6-((2-(1-(cyclopropylsulfonyl)-1H-pyrazol-4-yl)pyrimidin-4-yl)amino)pyridin-3-yl)(cyclopropyl)methanone], the IC50 is 4.1 nM on EGFR L858R/C797S (setting [1]); 9.3 nM at EGFR wildtype (WT) (setting [2]); 0.2 nM on EGFR L858R/T790M/C797S (setting [3]); 0.2 nM at EGFR del19/T790M/C797S (setting [4]); 0.7 nM on EGFR del19/C797S (setting [5]).
`CN[C@H]1CC[C@H](CNc2cc(Nc3ccnc(-c4cnn(S(=O)(=O)C5CC5)c4)n3)ncc2C(=O)C2CC2)CC1` [Example 88, Cyclopropyl(6-((2-(1-(cyclopropylsulfonyl)-1H-pyrazol-4-yl)pyrimidin-4-yl)amino)-4-((((1r,4r)-4-(methylamino)cyclohexyl)methyl)amino)pyridin-3-yl)methanone]: the IC50 against EGFR L858R/C797S (setting [6]) turned out to be 30.7 nM; at EGFR L858R/C797S (setting [1]), 2.6 nM; on EGFR wildtype (WT) (setting [7]), 3160 nM; on EGFR wildtype (WT) (setting [2]), 24.6 nM; against EGFR L858R/T790M/C797S (setting [8]) it was 0.2 nM; at EGFR L858R/T790M/C797S (setting [3]) it was 0.1 nM. Also, the IC50 is 0.1 nM at EGFR del19/T790M/C797S (setting [9]), 0.1 nM on EGFR del19/T790M/C797S (setting [4]), 2.6 nM against EGFR del19/C797S (setting [10]) and 1.6 nM at EGFR del19/C797S (setting [5]).
As to `O=C(NCCF)c1cnc(Nc2ccnc(-c3cnn(S(=O)(=O)C4CC4)c3)n2)cc1N[C@H]1CC[C@@H](NCCF)CC1` [Example 77, 6-((2-(1-(Cyclopropylsulfonyl)-1H-pyrazol-4-yl)pyrimidin-4-yl)amino)-N-(2-fluoroethyl)-4-(((1s,4s)-4-((2-fluoroethyl)amino)cyclohexyl)amino)nicotinamide], the IC50 against EGFR L858R/C797S (setting [6]) is 145 nM; at EGFR L858R/C797S (setting [1]), 9 nM; against EGFR wildtype (WT) (setting [7]), more than 10000 nM; on EGFR wildtype (WT) (setting [2]), 57.4 nM; on EGFR L858R/T790M/C797S (setting [8]) it was 1.6 nM; at EGFR L858R/T790M/C797S (setting [3]) it was 0.1 nM. Moreover, the IC50 against EGFR del19/T790M/C797S (setting [9]) amounted to 0.9 nM; at EGFR del19/T790M/C797S (setting [4]), 0.2 nM; at EGFR del19/C797S (setting [10]) it was 19.3 nM; at EGFR del19/C797S (setting [5]), 5.6 nM.
In the case of `CN(C)C[C@H]1CC[C@H](CNc2cc(Nc3ccnc(-c4cn[nH]c4)n3)ncc2C(=O)C2CC2)CC1` [Example 59, (6-((2-(1H-Pyrazol-4-yl)pyrimidin-4-yl)amino)-4-((((1r,4r)-4-((dimethylamino)methyl)cyclohexyl)methyl)amino)pyridin-3-yl)(cyclopropyl)methanone], the IC50 was found to be 67.9 nM at EGFR L858R/C797S (setting [1]); 136 nM at EGFR wildtype (WT) (setting [2]); 5.7 nM at EGFR L858R/T790M/C797S (setting [3]); 1.2 nM on EGFR del19/T790M/C797S (setting [4]); 207 nM on EGFR del19/C797S (setting [5]).
As for `O=C(c1cnc(Nc2ccnc(-c3cnn(S(=O)(=O)C4CC4)c3)n2)cc1NC1CC[C@@H](O)[C@@H](O)C1)C1CC1` (stereo partly drawn) [Example 36, Cyclopropyl(6-((2-(1-(cyclopropylsulfonyl)-1H-pyrazol-4-yl)pyrimidin-4-yl)amino)-4-(((3S,4R)-3,4-dihydroxycyclohexyl)amino)pyridin-3-yl)methanone], the IC50 was 15.5 nM against EGFR L858R/C797S (setting [6]); more than 10000 nM against EGFR wildtype (WT) (setting [7]); 0.9 nM against EGFR L858R/T790M/C797S (setting [8]); 0.5 nM against EGFR del19/T790M/C797S (setting [9]); 5.4 nM against EGFR del19/C797S (setting [10]).
For `O=C(c1cnc(Nc2ccnc(-c3cnn(S(=O)(=O)C4CC4)c3)n2)cc1N[C@H]1CCC[C@H](O)C1)C1CC1` [Example 22, Cyclopropyl(6-((2-(1-(cyclopropylsulfonyl)-1H-pyrazol-4-yl)pyrimidin-4-yl)amino)-4-(((1S,3S)-3-hydroxycyclohexyl)amino)pyridin-3-yl)methanone] the same measures were 33.2 nM, more than 10000 nM, 1.1 nM, 0.9 nM and 14 nM.
Regarding `O=C(c1cnc(Nc2ccnc(-c3cnn(S(=O)(=O)C4CC4)c3)n2)cc1NC1CCC(NCCO)CC1)C1CC1` (stereo not shown) [Example 52, Cyclopropyl(6-((2-(1-(cyclopropylsulfonyl)-1H-pyrazol-4-yl)pyrimidin-4-yl)amino)-4-((4-((2-hydroxyethyl)amino)cyclohexyl)amino)pyridin-3-yl)methanone], the IC50 at EGFR L858R/C797S (setting [6]) is 15.2 nM; on EGFR wildtype (WT) (setting [7]) it was more than 10000 nM; at EGFR L858R/T790M/C797S (setting [8]) it was 1.8 nM; against EGFR del19/T790M/C797S (setting [9]), 1.1 nM; against EGFR del19/C797S (setting [10]), 26 nM.
Take `CN(C)Cc1ccc(CNc2cc(Nc3ccnc(-c4cnn(S(=O)(=O)C5CC5)c4)n3)ncc2C(=O)C2CC2)s1` [Example 20, Cyclopropyl(6-((2-(1-(cyclopropylsulfonyl)-1H-pyrazol-4-yl)pyrimidin-4-yl)amino)-4-(((5-((dimethylamino)methyl)thiophen-2-yl)methyl)amino)pyridin-3-yl)methanone]: the IC50 at EGFR L858R/C797S (setting [1]) was found to be 59.2 nM; at EGFR wildtype (WT) (setting [2]), 239 nM; at EGFR L858R/T790M/C797S (setting [3]), 3.9 nM; at EGFR del19/T790M/C797S (setting [4]) it was 2.2 nM; on EGFR del19/C797S (setting [5]), 415 nM.
Take `O=C(c1cnc(Nc2ccnc(-c3cnn(S(=O)(=O)C4CC4)c3)n2)cc1N[C@@H]1CC[C@@H](O)C1)C1CC1` [Example 26, Cyclopropyl(6-((2-(1-(cyclopropylsulfonyl)-1H-pyrazol-4-yl)pyrimidin-4-yl)amino)-4-(((1R,3R)-3-hydroxycyclopentyl)amino)pyridin-3-yl)methanone]: the IC50 is 118 nM on EGFR L858R/C797S (setting [6]); more than 10000 nM on EGFR wildtype (WT) (setting [7]); 3.3 nM on EGFR L858R/T790M/C797S (setting [8]); 2.9 nM against EGFR del19/T790M/C797S (setting [9]); 55.3 nM at EGFR del19/C797S (setting [10]).
For `O=C(c1cnc(Nc2ccnc(-c3cnn(S(=O)(=O)C4CC4)c3)n2)cc1NC1CCC(NCCN2CC(F)C2)CC1)C1CC1` (stereo not shown) [Example 55, Cyclopropyl(6-((2-(1-(cyclopropylsulfonyl)-1H-pyrazol-4-yl)pyrimidin-4-yl)amino)-4-((4-((2-(3-fluoroazetidin-1-yl)ethyl)amino)cyclohexyl)amino)pyridin-3-yl)methanone] the same measures were 85 nM, more than 10000 nM, 1.9 nM, 1 nM and 35.7 nM.
